Results on 25 compounds are retold here after ChEMBL document CHEMBL2385058, “Progress and developments in tau aggregation inhibitors for Alzheimer disease” (J Med Chem, 2013).

Where only a bound is given, the exact number is not on record here.

Data set [1] is described as follows: Inhibition of tau K19 protein (unknown origin) aggregation by thioflavin S fluorescence assay. More on the design: species or system Homo sapiens.
The species named for data set [2] is Homo sapiens. Kind of data set: Induction of tau K19 (unknown origin) disaggregation assessed as decrease in paired helical filament formation measured disassembly-inducing half maxima by thioflavin S fluorescence assay.
Data set [3] has as its system N2a. The experiment in a line: Cytotoxicity against mouse N2A cells at 10 uM after 24 hrs by LDH assay relative to control. It counts as cell-based.
Data set [4] has as its target T1, Microtubule-associated protein tau (Homo sapiens, UniProt P10636). Kind of data set: Inhibition of tau protein aggregation (unknown origin).
For data set [5], the target named is T1, Microtubule-associated protein tau. The experiment in a line: Induction of tau protein (unknown origin) disaggregation assessed as disassembly-inducing half maxima.
A short description of data set [6]: Inhibition of K18 P301L mutant (unknown origin) fibril formation after 1 hr by thioflavin T fluorescence assay. More on the design: species or system Homo sapiens.
The nature of data set [7]: Terminal half life in rat at 100 mg, iv. Format: ADME, organism-based. As to conditions: in vivo, read-out: beta t1/2 (converted).
The nature of data set [8]: Inhibition of full length human tau40 aggregation.
Data set [9] is described as follows: Inhibition of tau K19 aggregation (unknown origin). More on the design: species or system Homo sapiens.
For data set [10], the species on record is Homo sapiens. Kind of data set: Selectivity ratio of IC50 for full length human tau40 aggregation to IC50 for tau K19 aggregation (unknown origin).
The target of data set [11] is T1, Microtubule-associated protein tau. The experiment in a line: Inhibition of human recombinant brain tau protein (412 amino acid residues) filament assembly expressed in Escherichia coli BL21(DE3) by electron microscopic analysis in presence of heparin.
Data set [12] can be described thus: Inhibition of tau K19 (unknown origin) aggregation assessed as inhibition of paired helical filament formation after 10 days by thioflavin S fluorescence assay in presence of heparin. Also noted: species or system Homo sapiens.
For data set [13], the species on record is Homo sapiens. Kind of data set: Induction of tau K19 (unknown origin) disaggregation assessed as decrease in paired helical filament formation measured disassembly-inducing half maxima after 10 days by thioflavin S fluorescence assay in presence of heparin.
The target of data set [14] is T1, Microtubule-associated protein tau. Kind of data set: Inhibition of tau protein aggregation (unknown origin) at 5:1 compound to protein concentration by Western blot analysis. For orientation: Immunoblotting shows a protein as a band on a membrane.
Data set [15] can be described thus: Inhibition of tau K18 aggregation in mouse N2A cells. Format: cell-based.
In data set [16] the test system is N2a. Kind of data set: Inhibition of tau K18 deltaK280 mutant aggregation in mouse N2A cells at 10 uM measured over 5 days by thioflavin S fluorescence assay relative to control. It counts as cell-based.
Data set [17] is filed under the species Homo sapiens. Kind of data set: Induction of tau K19 (unknown origin) disaggregation assessed as disassembly-inducing half maxima.
Data set [18] is described as follows: Binding affinity to tau K19 (unknown origin) assessed as dissociation constant by STD-NMR analysis. Also noted: species or system Homo sapiens.
For data set [19], the target named is Amyloid-beta precursor protein (Homo sapiens, UniProt P05067). The experiment in a line: Inhibition of amyloid beta (1 to 40) (unknown origin) fibril formation after 18 hrs by DELFIA.
Data set [20] is described as follows: Tmax in amyotrophic lateral sclerosis patient. As to conditions: human, in vivo.
Data set [21] is described as follows: Inhibition of […] human tau K18 aggregation.
A short description of data set [22]: Oral bioavailability in diabetic neuropathy patient at 150 mg/day. Format: ADME, organism-based. The note with it: human, in vivo.

T1 sequence (P10636 whole entry): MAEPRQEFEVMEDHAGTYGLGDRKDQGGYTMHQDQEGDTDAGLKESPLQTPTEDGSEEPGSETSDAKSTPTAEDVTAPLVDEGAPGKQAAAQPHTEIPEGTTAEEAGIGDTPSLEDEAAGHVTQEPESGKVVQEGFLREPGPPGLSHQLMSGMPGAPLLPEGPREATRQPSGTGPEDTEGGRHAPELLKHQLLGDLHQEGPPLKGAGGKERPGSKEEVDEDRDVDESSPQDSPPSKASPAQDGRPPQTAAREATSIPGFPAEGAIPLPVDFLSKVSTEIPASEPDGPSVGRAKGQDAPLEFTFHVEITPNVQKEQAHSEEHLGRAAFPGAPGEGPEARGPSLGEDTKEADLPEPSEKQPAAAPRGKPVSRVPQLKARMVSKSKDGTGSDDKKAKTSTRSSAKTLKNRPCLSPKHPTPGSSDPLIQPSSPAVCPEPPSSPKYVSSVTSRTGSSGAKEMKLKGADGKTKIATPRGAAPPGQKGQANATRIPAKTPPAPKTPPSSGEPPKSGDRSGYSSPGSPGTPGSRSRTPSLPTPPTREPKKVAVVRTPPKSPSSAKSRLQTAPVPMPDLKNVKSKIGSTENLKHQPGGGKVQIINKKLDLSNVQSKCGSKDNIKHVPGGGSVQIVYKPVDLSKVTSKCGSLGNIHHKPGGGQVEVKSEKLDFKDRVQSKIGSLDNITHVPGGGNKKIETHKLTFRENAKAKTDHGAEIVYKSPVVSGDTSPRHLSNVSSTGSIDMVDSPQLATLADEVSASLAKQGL
Sequence of Amyloid-beta precursor protein (P05067 whole entry): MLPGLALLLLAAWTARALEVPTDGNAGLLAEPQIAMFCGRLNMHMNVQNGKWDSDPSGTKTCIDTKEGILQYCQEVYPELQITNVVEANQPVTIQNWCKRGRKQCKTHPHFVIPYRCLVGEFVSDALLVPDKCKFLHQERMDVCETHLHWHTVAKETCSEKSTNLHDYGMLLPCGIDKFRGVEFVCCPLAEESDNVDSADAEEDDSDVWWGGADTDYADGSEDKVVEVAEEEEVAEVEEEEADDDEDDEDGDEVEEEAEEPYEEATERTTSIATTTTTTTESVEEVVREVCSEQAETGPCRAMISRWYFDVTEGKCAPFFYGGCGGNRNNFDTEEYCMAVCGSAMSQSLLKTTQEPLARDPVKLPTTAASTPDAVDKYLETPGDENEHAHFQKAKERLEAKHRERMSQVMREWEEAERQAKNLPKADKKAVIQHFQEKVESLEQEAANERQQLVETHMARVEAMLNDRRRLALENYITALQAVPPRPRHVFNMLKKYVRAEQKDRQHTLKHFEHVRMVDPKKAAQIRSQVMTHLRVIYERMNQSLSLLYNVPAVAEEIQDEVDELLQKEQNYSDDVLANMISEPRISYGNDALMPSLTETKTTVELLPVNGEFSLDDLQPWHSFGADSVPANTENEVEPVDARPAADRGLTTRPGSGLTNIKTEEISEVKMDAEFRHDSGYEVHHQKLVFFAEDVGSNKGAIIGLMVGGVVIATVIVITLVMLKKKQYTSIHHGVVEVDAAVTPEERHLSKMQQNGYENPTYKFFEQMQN

The term IC50 denotes the concentration at which inhibition is half-maximal. `O=C(O)CCN1C(=O)/C(=C/c2ccc(-c3cccc(Cl)c3)s2)SC1=S` came in with a half-maximal inhibitory concentration (IC50) in [1] of 0.97 µM. Besides, in the data set listed under Homo sapiens [2], the Activity amounted to 0.77 µM.
`O=C1/C(=C/c2ccc(-c3cccc(Cl)c3)o2)SC(=S)N1Cc1nc2ccccc2[nH]1`: the figures for the Activity in the data set with N2a [3] and in the data set listed under Homo sapiens [2] were 2% and 0.94 µM, respectively. In addition, 0.67 µM corresponded to half-maximal inhibition in data set [1] (IC50).
`Cc1ccc(C(=O)N/N=C/c2ccc(O)c(O)c2O)cc1` yielded a half-maximal inhibitory concentration (IC50) in data set [4] of 0.97 µM. Besides, the Activity in data set [5] worked out at 1.1 µM.
`CCOC(=O)c1nn(-c2ccccc2)c(=O)c2c(N)scc12` registered an IC50 in [6] of 6.3 µM.
In the case of `CN(C)c1ccc2nc3ccc(N(C)C)cc3[s+]c2c1.[Cl-]` [METHYLENE BLUE ANHYDROUS], in data set [7], the half-life is 5 h.
In the case of `CCOC(=O)c1nn(-c2ccc(OC)cc2)c(=O)c2c(N)scc12`, the IC50 in data set [6] stood at 5.1 µM.
For `C1=C2\Sc3ccccc3N2CCCCC[n+]2c(sc3ccccc32)/C=C/C=C2\Sc3ccccc3N2CCCCC[n+]2c(sc3ccccc32)/C=C/1`, the midpoint of inhibition in data set [4], the IC50, lay at 0.08 µM.
Regarding `O=C(O[C@@H]1Cc2c(O)cc(O)cc2O[C@@H]1c1cc(O)c(O)c(O)c1)c1cc(O)c(O)c(O)c1` [EPIGALOCATECHIN GALLATE], the IC50 was greater than 200 µM in [8], 3.9 µM in data set [9] and 1.8 µM in [11]. Also, the Ratio IC50 in the data set listed under Homo sapiens [10] was greater than 50.
For the compound `Oc1cc(O)c2c(c1)O[C@H](c1ccc(O)c(O)c1)[C@H](O)C2` [(-)-EPICATECHIN], in [11], the IC50 was no less than 200 µM.
As to `COc1cccc2c1C(=O)c1c(O)c3c(c(O)c1C2=O)C[C@@](O)(C(C)=O)C[C@@H]3O[C@H]1C[C@H](N)[C@H](O)[C@H](C)O1` [DAUNORUBICIN], the IC50 in data set [12] stood at 1.1 µM. Also, in the data set filed under Homo sapiens [13], the Activity was 2.2 µM.
Taken in the same sequence, the figures for `Cc1cc(O)c2c(c1)C(=O)c1cc(O)cc(O)c1C2=O` [EMODIN] were 1.1 µM and 2.2 µM.
Consider `COc1cccc2c1C(=O)c1c(O)c3c(c(O)c1C2=O)C[C@@](O)(C(=O)CO)C[C@@H]3O[C@H]1C[C@H](N)[C@H](O)[C@H](C)O1`, for which the Activity in the data set filed under Homo sapiens [13] was 2.2 µM.
With `O=C(O)CCN1C(=O)/C(=C/c2ccc(-c3cccc(Cl)c3)o2)SC1=S`, it took 0.47 µM to reach half-maximal inhibition in [1] (IC50). Also, the Activity in the data set listed under Homo sapiens [2] is 0.3 µM.
For the compound `CN(C)c1ccc2nc3ccc(N)cc3[s+]c2c1`, the concentration for half-maximal inhibition (IC50) came to 0.069 µM in data set [14] and 2.6 µM in [11].
Consider `Cc1cc2nc3ccc(N(C)C)cc3[s+]c2cc1N` [TOLONIUM CHLORIDE], for which the IC50 in [14] turned out to be 0.069 µM.
For the compound `O=C(O)COc1ccc(Nc2c([N+](=O)[O-])cc([N+](=O)[O-])c3cccnc23)cc1`, the IC50 in data set [15] is less than 15 µM.
Usually inhibition stands for the share of the control response that was lost under treatment. A lower inhibition goes with a response near the control. `Cc1nc(Nc2ccccc2C(=O)O)nc(Nc2ccccc2C(=O)O)c1[N+](=O)[O-]` returned an inhibition in the data set on N2a [16] of 70%. This compound gave an IC50 in data set [15] of less than 10 µM.
What is called Kd is the constant that tells how readily two partners part at equilibrium. In the case of `O=C(NNc1nc(-c2ccc([N+](=O)[O-])cc2)cs1)c1ccc2[nH]cnc2c1`, in the data set listed under Homo sapiens [17], the Activity was determined as 0.7 µM. In [18], the equilibrium dissociation constant (Kd) came to 62 µM. In data set [9], half-maximal inhibition (IC50) required 1.6 µM.
With `COc1ccccc1OCCNCC(O)COc1cccc2[nH]c3ccccc3c12` (configuration not stated) [CARVEDILOL], the midpoint of inhibition in [19], the IC50, lay at 30 µM.
In the case of `O=C1c2ccc(O)c(O)c2C(=O)c2c(O)ccc(O)c21` [QUINALIZARIN], the IC50 in [12] came to 1.1 µM. In addition, in the data set listed under Homo sapiens [13], the Activity is 2.2 µM.
Take `O=C(c1ccccc1)c1ccc(O)c(O)c1O`: the IC50 in data set [12] was determined as 1.1 µM. Moreover, the Activity in the data set filed under Homo sapiens [13] stood at 2.2 µM.
The compound `Nc1ccc2nc3ccc(N)cc3[s+]c2c1` displayed a concentration for half-maximal inhibition (IC50) in [14] of 0.069 µM.
Usually Tmax stands for the time from dosing to the highest level. Turning to `Nc1nc2ccc(OC(F)(F)F)cc2s1` [RILUZOLE], the Tmax in [20] is 2 h.
As for `CCC(/C=C1\Sc2ccc(OC)cc2N1CCO)=C\c1sc2ccc(OC)cc2[n+]1CCO`, the IC50 in data set [4] was determined as 0.38 µM; in data set [21] it was 0.3 µM.
A word on the bioavailability: it is dose-corrected exposure relative to a reference, in per cent. Low readings indicate poor availability, high ones good availability. Compound `CC(/C=C1\SC(=S)N(CC(=O)O)C1=O)=C\c1ccccc1` registered a bioavailability in data set [22] of 100%.
